Values joined by “and” are separate entries in the source; they are usually repeats but may differ in a detail not shown here. Equal values may be shown once. Toxic doses and inconclusive results are not listed.

The test system of the test is BDF1 mice, P388 leukemia ip, median survival T/C. As to the kind of experiment: NCI In Vivo Anticancer Drug Screen. Data for tumor model P388 Leukemia (intraperitoneal) in B6D2F1 (BDF1) mice. Particulars: endpoint: median survival time, higher = longer survival. In outline: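 Reported as T/C, where T is the survival measurement in dosed animals and C the same measurement in vehicle controls.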

[1] abbreviates: dose: 50.0 mg/kg/injection, schedule: Q04DX003 (ip), vehicle: saline sonified.
Where [2] appears, read: dose: 100.0 mg/kg/injection, schedule: Q04DX003 (ip), vehicle: saline sonified.
The mark [3] stands for this setting: dose: 25.0 mg/kg/injection, schedule: Q01DX009 (ip), vehicle: saline.
Setting [4] is: dose: 50.0 mg/kg/injection, schedule: Q01DX009 (ip), vehicle: saline.
Where [5] appears, read: dose: 100.0 mg/kg/injection, schedule: Q01DX009 (ip), vehicle: saline.
The mark [6] stands for this setting: dose: 200.0 mg/kg/injection, schedule: Q01DX009 (ip), vehicle: saline.
Setting [7] is: dose: 400.0 mg/kg/injection, schedule: Q01DX009 (ip), vehicle: saline.
Setting [8] is: dose: 100.0 mg/kg/injection, schedule: Q04DX003 (ip), vehicle: Klucel (hydroxypropylcellulose) (HPC).
Setting [9] is: dose: 200.0 mg/kg/injection, schedule: Q04DX003 (ip), vehicle: Klucel (hydroxypropylcellulose) (HPC).
The mark [10] stands for this setting: dose: 50.0 mg/kg/injection, schedule: Q01DX009 (ip), vehicle: saline with Tween-80.
The mark [11] stands for this setting: dose: 100.0 mg/kg/injection, schedule: Q01DX009 (ip), vehicle: saline with Tween-80.
The mark [12] stands for this setting: dose: 200.0 mg/kg/injection, schedule: Q01DX009 (ip), vehicle: saline with Tween-80.
The mark [13] stands for this setting: dose: 100.0 mg/kg/injection, schedule: Q04DX003 (ip), vehicle: saline.
Where [14] appears, read: dose: 200.0 mg/kg/injection, schedule: Q04DX003 (ip), vehicle: saline.
[15] abbreviates: dose: 400.0 mg/kg/injection, schedule: Q04DX003 (ip), vehicle: saline.

`COc1cc([C@@H]2c3cc4c(cc3[C@H](SC(=N)N)[C@H]3COC(=O)[C@H]23)OCO4)cc(OC)c1OC`: the T/C by setting is: (dose: 1.4 mg/kg/injection, schedule: Q01DX010 (ip), vehicle: carboxymethylcellulose (CMC)) 105 % of control; (dose: 2.8 mg/kg/injection, schedule: Q01DX010 (ip), vehicle: carboxymethylcellulose (CMC)) 100 % of control; (dose: 5.6 mg/kg/injection, schedule: Q01DX010 (ip), vehicle: carboxymethylcellulose (CMC)) 110 % of control; (dose: 18.0 mg/kg/injection, schedule: Q01DX009 (ip), vehicle: Klucel (hydroxypropylcellulose) (HPC)) 152 % of control; (dose: 27.0 mg/kg/injection, schedule: Q01DX009 (ip), vehicle: Klucel (hydroxypropylcellulose) (HPC)) 171 % of control.
Consider `O=C(O)CCCCCCCC(=O)c1ccccc1`, for which the T/C under setting [1] is 100 % of control; the T/C under setting [2] is 104 % of control; the T/C (dose: 200.0 mg/kg/injection, schedule: Q04DX003 (ip), vehicle: saline sonified) was 95 % of control.
On to `O=C(O)C1C2C=CC(C3C=CC32)C1C(=O)O` (stereo unspecified), for which the T/C under setting [3] was 97 % of control; the T/C under setting [4] was 93 % of control; the T/C under setting [5] is 97 % of control; the T/C under setting [6] is 96 % of control; the T/C under setting [7] was 102 % of control.
`CCB(CC)OCC1OB(CC)OC1C1OB(CC)OC1COB(CC)CC` (stereo unspecified): the T/C runs as follows: under setting [4], 99 % of control; under setting [5], 97 % of control; under setting [6], 99 % of control.
With `O=C(O)/C=C\C(=O)Nc1ccccc1NC(=O)/C=C/C(=O)O`, the T/C under setting [5] is 104 % of control, the T/C under setting [6] is 113 % of control and the T/C under setting [7] was 109 % of control.
For `C/C=C1\C(=O)OC23C=CC4C(C(=O)OC)C(O)OC(OC12)C43` (stereo unspecified), the T/C was 95 % of control (dose: 0.04 mg/kg/injection, schedule: Q01DX009 (ip), vehicle: saline); 100 % of control (dose: 0.2 mg/kg/injection, schedule: Q01DX009 (ip), vehicle: saline); 110 % of control (dose: 1.0 mg/kg/injection, schedule: Q01DX009 (ip), vehicle: saline + alcohol).
Take `O=C(O)C(S)C(S)C(=O)O.[As]` (stereo unspecified): the T/C is, setting by setting: under setting [3], 94 % of control; (dose: 25.0 mg/kg/injection, schedule: Q04DX003 (ip), vehicle: saline sonified) 118 % of control; under setting [4], 88 % of control; under setting [1], 118 % of control; under setting [5], 88 % of control; under setting [2], 122 % of control.
With `CN1CCN(c2cc3c(cc2[N+](=O)[O-])no[n+]3[O-])CC1`, the T/C (dose: 15.0 mg/kg/injection, schedule: Q01DX009 (ip), vehicle: saline with Tween-80) was 123 % of control; the T/C (dose: 30.0 mg/kg/injection, schedule: Q01DX009 (ip), vehicle: saline with Tween-80) was 120 % of control; the T/C (dose: 60.0 mg/kg/injection, schedule: Q01DX009 (ip), vehicle: saline with Tween-80) was 103 % of control.
On to `NN(c1ccccc1)c1ccc2ccccc2c1`, for which the T/C is 95 % of control (dose: 50.0 mg/kg/injection, schedule: Q04DX003 (ip), vehicle: Klucel (hydroxypropylcellulose) (HPC)); 104 % of control under setting [8]; 109 % of control under setting [9].
On to `C=CCN1CSC(=S)N(CC=C)C1`, for which the T/C was 100 % of control (dose: 25.0 mg/kg/injection, schedule: Q01DX009 (ip), vehicle: saline with Tween-80) and 87 % of control under setting [10].
With `FC(F)(F)c1cccc(C(c2ccccc2)(c2ccccc2)n2cncn2)c1`, the T/C is, setting by setting: under setting [10], 114 % of control; under setting [11], 109 % of control; under setting [12], 100 % of control.
Turning to `COC(=O)c1cc(C)c(Br)c(N)c1`, the T/C is 105 % of control (dose: 100.0 mg/kg/injection, schedule: Q01DX009 (ip), vehicle: Klucel (hydroxypropylcellulose) (HPC)); 109 % of control under setting [8]; 100 % of control (dose: 200.0 mg/kg/injection, schedule: Q01DX009 (ip), vehicle: Klucel (hydroxypropylcellulose) (HPC)); 104 % of control under setting [9]; 100 % of control (dose: 400.0 mg/kg/injection, schedule: Q01DX009 (ip), vehicle: Klucel (hydroxypropylcellulose) (HPC)); 109 % of control (dose: 400.0 mg/kg/injection, schedule: Q04DX003 (ip), vehicle: Klucel (hydroxypropylcellulose) (HPC)).
Take `C(CC1CO1)C1CO1` (stereo unspecified): the T/C was 119 % of control and 120 % of control (dose: 22.0 mg/kg/injection, schedule: Q01DX009 (ip), vehicle: saline); 157 % of control under setting [3]; 113 % of control (dose: 30.0 mg/kg/injection, schedule: Q04DX003 (ip), vehicle: saline); 150 % of control (dose: 33.0 mg/kg/injection, schedule: Q01DX009 (ip), vehicle: saline); 161 % of control and 166 % of control and 176 % of control under setting [4]; 172 % of control and 176 % of control (dose: 67.0 mg/kg/injection, schedule: Q04DX003 (ip), vehicle: saline). Besides, the T/C was 175 % of control and 200 % of control (dose: 75.0 mg/kg/injection, schedule: Q01DX009 (ip), vehicle: saline); 215 % of control under setting [5]; 241 % of control and 200 % of control under setting [13]; 240 % of control (dose: 150.0 mg/kg/injection, schedule: Q04DX003 (ip), vehicle: saline).
As for `CCC1OC(=O)CC(O)C(C)C(OC2OC(C)C(O)C(N(C)C)C2O)C(CC=O)CC(C)C(=O)/C=C/C2(C)OC2C1C` (stereo unspecified), under “dose: 150.0 mg/kg/injection, schedule: Q01DX009 (ip), vehicle: Klucel (hydroxypropylcellulose) (HPC)”, the T/C is 92 % of control.
As to `CCCCCCCCCCCCn1c(C)nc2ccccc21`, the T/C by setting is: (dose: 10.0 mg/kg/injection, schedule: Q04DX003 (ip), vehicle: saline) 105 % of control; (dose: 20.0 mg/kg/injection, schedule: Q04DX003 (ip), vehicle: saline) 120 % of control; (dose: 40.0 mg/kg/injection, schedule: Q04DX003 (ip), vehicle: saline) 115 % of control; (dose: 60.0 mg/kg/injection, schedule: Q04DX003 (ip), vehicle: saline) 109 % of control; (dose: 90.0 mg/kg/injection, schedule: Q04DX003 (ip), vehicle: saline) 104 % of control; (dose: 135.0 mg/kg/injection, schedule: Q04DX003 (ip), vehicle: saline) 86 % of control. Further, the T/C was 105 % of control under setting [14] and 110 % of control (dose: 305.0 mg/kg/injection, schedule: Q04DX003 (ip), vehicle: saline).
With `O=[N+]([O-])c1ccc(OCCNS(=O)(=O)c2cccc(S(=O)(=O)F)c2)c(Cl)c1`, the T/C is, setting by setting: (dose: 12.5 mg/kg/injection, schedule: Q01DX009 (ip), vehicle: saline with Tween-80) 110 % of control; under setting [10], 110 % of control; under setting [11], 94 % of control; (dose: 100.0 mg/kg/injection, schedule: Q04DX003 (ip), vehicle: saline with Tween-80) 99 % of control; under setting [12], 105 % of control; (dose: 200.0 mg/kg/injection, schedule: Q04DX003 (ip), vehicle: saline with Tween-80) 99 % of control. Further, the T/C is 88 % of control (dose: 400.0 mg/kg/injection, schedule: Q01DX009 (ip), vehicle: saline with Tween-80) and 108 % of control (dose: 400.0 mg/kg/injection, schedule: Q04DX003 (ip), vehicle: saline with Tween-80).
Turning to `CCOC(=O)CCN1CCCCCC1`, the T/C by setting is: under setting [3], 91 % of control; under setting [4], 120 % of control; under setting [5], 95 % of control; under setting [13], 100 % of control; under setting [6], 92 % of control; under setting [14], 100 % of control. Further, under setting [15], the T/C is 118 % of control.
`CCCCCCCCNC(=O)C1OC(n2cnc3c(N)ncnc32)C(O)C1O` (stereo unspecified): the T/C under setting [3] is 95 % of control; the T/C under setting [4] was 90 % of control; the T/C under setting [5] is 95 % of control and 105 % of control; the T/C under setting [13] was 95 % of control; the T/C under setting [6] was 90 % of control and 109 % of control; the T/C under setting [14] was 105 % of control. Moreover, the T/C under setting [15] is 90 % of control.
As to `CC1(C)O[C@]2(C)CC[C@@H]1C[C@H]2O`, the T/C runs as follows: (dose: 50.0 mg/kg/injection, schedule: Q01DX005 (ip), vehicle: saline with Tween-80) 100 % of control; (dose: 100.0 mg/kg/injection, schedule: Q01DX005 (ip), vehicle: saline with Tween-80) 98 % of control; (dose: 200.0 mg/kg/injection, schedule: Q01DX005 (ip), vehicle: saline with Tween-80) 95 % of control.
On to `C[N+]1(C2CCC3CCC2C3O)CCCCC1` (stereo unspecified), for which the T/C under setting [13] is 90 % of control and the T/C under setting [14] is 122 % of control.
